The record followed here is ChEMBL document CHEMBL1201862, “PubChem BioAssay data set” (2004).

Each structure is given as a SMILES string.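 Assay format: 96-well plates, 48-hour exposure. Abbreviation: GI50, concentration required for 50% inhibition of growth.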 The source made the active and inactive calls. Cut-off read from the data, not from the text of the source: active = GI50 up to about 1.1 µM and inactive = higher.

Test systems include HCC 2998; CAKI-1; 786-0; UACC-257; RPMI-8226; UACC-62; NCI-H460; ACHN; OVCAR-3; SR; OVCAR-5; HT-29; OVCAR-4; A498.
What all share (experiment): growth of human tumour cells (NCI), 48 h

For `Nc1nc(N)c(CCCCc2ccccc2)c(/C=C/c2ccc([N+](=O)[O-])cc2)n1`, the GI50 was 2.65 µM (inactive) with HCC 2998; 3.92 µM (inactive) in the test on CAKI-1; 0.785 µM (active) in the test with 786-0; 2.51 µM (inactive) in the test with UACC-257; 3.31 µM (inactive) in the test on RPMI-8226; 2.07 µM (inactive) in the test on UACC-62. The GI50 with NCI-H460 was 0.873 µM (active); in the test with ACHN it was 3.4 µM (inactive); in the test on OVCAR-3, 2.43 µM (inactive); in the test on SR it was 1.56 µM (inactive); with OVCAR-5, 3.87 µM (inactive); in the test on HT-29, 0.925 µM (active). Besides, in the test with OVCAR-4, the GI50 was 3.94 µM (inactive).
In the case of `Nc1ccc2ncc(Nc3ccc(F)cc3)nc2c1`, the GI50 was > 100 µM (inactive) in the test on HCC 2998; > 100 µM (inactive) with CAKI-1; > 100 µM (inactive) in the test with 786-0; > 100 µM (inactive) in the test on UACC-257; 87.3 µM (inactive) in the test with RPMI-8226; > 100 µM (inactive) in the test on NCI-H460. In addition, the GI50 in the test with ACHN is > 100 µM (inactive); in the test with OVCAR-3, > 100 µM (inactive); in the test on SR, 44 µM (inactive); with OVCAR-5 it was 84.5 µM (inactive); in the test with HT-29, > 100 µM (inactive); in the test with OVCAR-4 it was > 100 µM (inactive).
Consider `C[N+](C)=c1nc(N2CCOCC2)ss1`, for which the GI50 was > 100 µM (inactive) in the test on HCC 2998; > 100 µM (inactive) in the test with CAKI-1; > 100 µM (inactive) with 786-0; > 100 µM (inactive) in the test with UACC-257; 4.14 µM (inactive) in the test on A498; 8.53 µM (inactive) with UACC-62. The GI50 with NCI-H460 is 8.04 µM (inactive); in the test on ACHN it was > 100 µM (inactive); in the test with SR, > 100 µM (inactive); with OVCAR-5, > 100 µM (inactive); with HT-29, 22.8 µM (inactive).
With `COc1cc2ccc(/C(C)=N/OC(C)=O)cc2cc1OC`, the GI50 was > 100 µM (inactive) in the test with 786-0; > 100 µM (inactive) with UACC-257; 84.7 µM (inactive) in the test with RPMI-8226; 22.8 µM (inactive) in the test with A498; 20.8 µM (inactive) in the test on UACC-62; 82.2 µM (inactive) with NCI-H460. The GI50 with ACHN is 65.3 µM (inactive); in the test on OVCAR-3, 34.1 µM (inactive); in the test with OVCAR-5, 63.4 µM (inactive); in the test on HT-29, 64.3 µM (inactive); with OVCAR-4, > 100 µM (inactive).
`CC(=O)OCC1OC(n2c(=S)n(-c3ccccc3)c(=O)c3cc(Br)ccc32)C(OC(C)=O)C1OC(C)=O` (stereo not given): the GI50 with HCC 2998 is > 100 µM (inactive); in the test with CAKI-1, 11.6 µM (inactive); with 786-0 it was > 100 µM (inactive); in the test with UACC-257, > 100 µM (inactive); in the test with RPMI-8226, 51.3 µM (inactive); in the test on A498, > 100 µM (inactive). Moreover, the GI50 with UACC-62, in the test with NCI-H460, in the test with ACHN, in the test with OVCAR-3, in the test with OVCAR-5 and in the test on HT-29 was > 100 µM (inactive) in each case. In addition, in the test on OVCAR-4, the GI50 was > 100 µM (inactive).
For the compound `C=CCC1(CN(C)C)CC/C(=C\c2ccc(OC)cc2)C1=O` (stereo not given), the GI50 in the test on HCC 2998 is 38.7 µM (inactive); in the test with 786-0, 65.8 µM (inactive); in the test on UACC-257, 38 µM (inactive); with RPMI-8226, 23.9 µM (inactive); with A498 it was 73.5 µM (inactive); in the test on UACC-62 it was > 100 µM (inactive). Also, the GI50 in the test with NCI-H460 was > 100 µM (inactive); in the test with ACHN, > 100 µM (inactive); with OVCAR-3, > 100 µM (inactive); in the test on OVCAR-5, > 100 µM (inactive); in the test on HT-29 it was 36.6 µM (inactive); in the test with OVCAR-4, 88.7 µM (inactive).
As for `CCC(=O)CCC1=Nc2nnc(CCCCc3nnc4n3C(=O)C(CCC(=O)CC)=N4)n2C1=O`, the GI50 with HCC 2998, in the test on CAKI-1, in the test with 786-0, in the test on UACC-257, in the test on RPMI-8226 and in the test on A498 was > 100 µM (inactive) in each case. Further, the GI50 in the test with UACC-62, in the test on NCI-H460, in the test with ACHN, with OVCAR-3, in the test on OVCAR-5 and in the test with HT-29 was > 100 µM (inactive) in each case. The GI50 with OVCAR-4 is > 100 µM (inactive).
Turning to `Oc1ccccc1/C=N/Cc1ccco1`, the GI50 with 786-0, in the test with UACC-257, in the test with RPMI-8226, in the test on A498, with UACC-62 and in the test with NCI-H460 was > 100 µM (inactive) in each case. The GI50 in the test with ACHN, in the test with OVCAR-3, in the test with SR, in the test with OVCAR-5, with HT-29 and in the test on OVCAR-4 was > 100 µM (inactive) throughout.
As for `O=C1C=C(N2CCCC2)C=C(N2CCCC2)C1`, the GI50 in the test on HCC 2998, with CAKI-1, in the test with 786-0, in the test on UACC-257, in the test with RPMI-8226 and in the test with UACC-62 was > 100 µM (inactive) each time. The GI50 was > 100 µM (inactive) with NCI-H460; > 100 µM (inactive) with ACHN; 75.5 µM (inactive) in the test on OVCAR-3; > 100 µM (inactive) with SR; > 100 µM (inactive) in the test on OVCAR-5; > 100 µM (inactive) in the test with HT-29.
Turning to `O=C(CC/C(CC(=O)c1ccc(Cl)cc1)=N/O)Nc1ccc(Cl)c(Cl)c1`, the GI50 in the test with CAKI-1 is 86.1 µM (inactive); in the test on 786-0, > 100 µM (inactive); in the test on UACC-257 it was > 100 µM (inactive); in the test on RPMI-8226 it was 76.9 µM (inactive); in the test with A498 it was > 100 µM (inactive); in the test with UACC-62, 18.3 µM (inactive). The GI50 in the test with NCI-H460 is > 100 µM (inactive); in the test on ACHN it was 31.8 µM (inactive); in the test on OVCAR-3, > 100 µM (inactive); with SR it was 89.5 µM (inactive); in the test with OVCAR-5, 24 µM (inactive); in the test on HT-29, > 100 µM (inactive). For the same compound, the GI50 in the test on OVCAR-4 is 43.4 µM (inactive).
For `Cc1cccc(NC2=NC(=O)C(CC(=O)Nc3cccc(C)c3C)S2)c1` (stereo not given), the GI50 with HCC 2998 is > 100 µM (inactive); with 786-0, > 100 µM (inactive); in the test on UACC-257, > 100 µM (inactive); with RPMI-8226 it was 85.9 µM (inactive); in the test on UACC-62, > 100 µM (inactive); in the test on NCI-H460 it was > 100 µM (inactive). The GI50 with ACHN, with OVCAR-3, in the test with OVCAR-5, in the test on HT-29 and with OVCAR-4 was > 100 µM (inactive) throughout.
Turning to `Cc1nc2c(sc(=S)n2-c2ccccc2)c2nc3ccccc3n12`, the GI50 was > 100 µM (inactive) in the test on HCC 2998; > 100 µM (inactive) with CAKI-1; > 100 µM (inactive) with 786-0; > 100 µM (inactive) with UACC-257; > 100 µM (inactive) in the test with RPMI-8226; > 10 µM (inactive) in the test on A498. For the same compound, the GI50 in the test with UACC-62, with ACHN, with OVCAR-3, in the test on OVCAR-5, in the test on HT-29 and in the test with OVCAR-4 was > 100 µM (inactive) throughout.
